{"source": "BindingDB's records for doi:10.1021/jm00065a015", "about": "(Smithkline Beecham Pharmaceuticals, 1993)", "biological_target": "T1, 5-hydroxytryptamine receptor 2C (Rattus norvegicus, UniProt P08909)", "T1 sequence (P08909 whole entry)": "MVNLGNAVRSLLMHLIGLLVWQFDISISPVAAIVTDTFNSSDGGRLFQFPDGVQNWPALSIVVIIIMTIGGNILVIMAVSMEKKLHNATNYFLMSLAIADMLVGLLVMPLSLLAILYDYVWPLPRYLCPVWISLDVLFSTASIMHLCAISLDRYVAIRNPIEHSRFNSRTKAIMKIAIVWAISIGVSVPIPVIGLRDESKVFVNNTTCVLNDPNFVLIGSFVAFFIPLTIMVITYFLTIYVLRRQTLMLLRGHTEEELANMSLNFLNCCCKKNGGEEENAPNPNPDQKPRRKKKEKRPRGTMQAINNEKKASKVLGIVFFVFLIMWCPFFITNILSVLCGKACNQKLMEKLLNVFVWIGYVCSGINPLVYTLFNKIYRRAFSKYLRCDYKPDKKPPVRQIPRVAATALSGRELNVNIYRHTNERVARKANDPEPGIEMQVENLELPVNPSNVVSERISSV", "test": "Binding affinity for 5-hydroxytryptamine 1C receptor was determined"}
{"smiles": "NCCc1c[nH]c2ccc(C(N)=O)cc12", "note": "[[3H]-5-carboxamidotryptamine]", "values": [{"measurement": "Kd", "value": 0.631, "unit": "µM"}]}
